Data set [1] in a line: sensory (organoleptic) test of sweetening potency.
For data set [2] the following is noted: times that of sucrose; reported in WO 94/11391; cited from earlier work.
Data set [3] is described as follows: physchem. Conditions: buffer, pH 3.
Where [4] appears, read: times the sweetness of sugar, sensory test.
Setting [5] is: values compared to sweetening potency of a 4% aqueous solution of sucrose.

The values that follow come from US7115296B2, “N-alkylaspartyl amide derivative and sweetening agent” (Ajinomoto Co., Inc., priority 2001, dated 2006).

Read-outs that look alike come from different tables or passages of the source. Peptide text beside a SMILES is read from it.

Take `COc1ccc(C(C)(C)CCN[C@@H](CC(=O)O)C(=O)N[C@H](C)[C@H](O)CC2CCCCC2)cc1O` [compound 14, N-[3-methyl-3-(3-hydroxy-4-methoxyphenyl)butyl]-α-L-aspartyl N-(1R,2R)-1-methyl-2-hydroxy-3-cyclohexylpropyl amide]: the Sweetening potency in data set [1] (setting [4]) was determined as 5000 times; in data set [1] (setting [5]) it was 5000.
The like results for `CC[C@@H](C[C@H](O)[C@@H](C)NC(=O)[C@H](CC(=O)O)NCCCc1ccc(OC)cc1)c1ccccc1` [compound 8, N-[3-(4-methoxyphenyl)propyl]-α-L-aspartyl N-(1R,2S,4S)-1-methyl-2-hydroxy-4-phenylhexyl amide] were, in that order, 3000 times and 3000.
As to `CC[C@@H](C[C@H](O)[C@@H](C)NC(=O)[C@H](CC(=O)O)NCCCc1ccc(O)c(C)c1)c1ccccc1` [compound 6, N-[3-(3-methyl-4-hydroxyphenyl)propyl]-α-L-aspartyl N-(1R,2S,4S)-1-methyl-2-hydroxy-4-phenylhexyl amide], the Sweetening potency was determined as 4000 times in data set [1] (setting [4]) and 4000 in data set [1] (setting [5]).
The matching figures for `CC[C@@H](C[C@H](O)[C@@H](C)NC(=O)[C@H](CC(=O)O)NCCCc1ccc(O)cc1)c1ccccc1` [compound 7, N-[3-(4-hydroxyphenyl)propyl]-α-L-aspartyl N-(1R,2S,4S)-1-methyl-2-hydroxy-4-phenylhexyl amide]: 6000 times and 6000.
The like results for `CC[C@H](C[C@H](O)[C@@H](C)NC(=O)[C@H](CC(=O)O)NCCCc1ccc(OC)c(O)c1)c1ccccc1` [compound 11, N-[3-(3-hydroxy-4-methoxyphenyl)propyl]-α-L-aspartyl N-(1R,2S,4R)-1-methyl-2-hydroxy-4-phenylhexyl amide] were, in that order, 4000 times and 4000.
On to `CC[C@@H](C[C@H](O)[C@@H](C)NC(=O)[C@H](CC(=O)O)NCCC(C)(C)c1ccc(O)c(C)c1)c1ccccc1` [compound 10, N-[3-methyl-3-(3-methyl-4-hydroxyphenyl)butyl]-α-L-aspartyl N-(1R,2S,4S)-1-methyl-2-hydroxy-4-phenylhexyl amide], for which the Sweetening potency in data set [1] (setting [4]) is given as 15000 times; in data set [1] (setting [5]), 15000.
The like results for `CC[C@@H](C[C@H](O)[C@@H](C)NC(=O)[C@H](CC(=O)O)NCCCc1ccc(O)cc1O)c1ccccc1` [compound 4, N-[3-(2,4-dihydroxyphenyl)propyl]-α-L-aspartyl N-(1R,2S,4S)-1-methyl-2-hydroxy-4-phenylhexyl amide] were, in that order, 10000 times and 10000.
With `COc1ccc(CCCN[C@@H](CC(=O)O)C(=O)N[C@H](C)[C@H](O)CC2CCCCC2)cc1O` [compound 13, N-[3-(3-hydroxy-4-methoxyphenyl)propyl]-α-L-aspartyl N-(1R,2R)-1-methyl-2-hydroxy-3-cyclohexylpropyl amide], the Sweetening potency in data set [1] (setting [4]) is reported as 5000 times; in data set [1] (setting [5]), 5000.
On to `CC[C@@H](C[C@H](O)[C@@H](C)NC(=O)[C@H](CC(=O)O)NCCC(C)(C)CCO)c1ccccc1` [compound 15, N-(3,3-dimethyl-5-hydroxypentyl)-α-L-aspartyl N-(1R,2S,4S)-1-methyl-2-hydroxy-4-phenylhexyl amide], for which the Sweetening potency is given as 6500 times in data set [1] (setting [4]) and 6500 in data set [1] (setting [5]).
Turning to `COc1ccc(CCCN[C@@H](CC(=O)O)C(=O)N[C@H](C)C(O)CC2CCCCC2)cc1O` (mixture of isomers) [compound 12, N-[3-(3-hydroxy-4-methoxyphenyl)propyl]-α-L-aspartyl N-(1R,2RS)-1-methyl-2-hydroxy-3-cyclohexylpropyl amide], the Sweetening potency is on record as 4000 times in data set [1] (setting [4]) and 4000 in data set [1] (setting [5]).
The like results for `CC[C@@H](C[C@H](O)[C@@H](C)NC(=O)[C@H](CC(=O)O)NCCC(C)(C)CCCO)c1ccccc1` [compound 16, N-(3,3-dimethyl-6-hydroxyhexyl)-α-L-aspartyl N-(1R,2S,4S)-1-methyl-2-hydroxy-4-phenylhexyl amide] were, in that order, 4500 times and 4500.
As to `COC(=O)[C@H](Cc1ccccc1)NC(=O)[C@H](CC(=O)O)NCCC(C)(C)C` [N-[N-(3,3-dimethylbutyl)-L-α-aspartyl]-L-phenylalanine 1-methyl ester], in data set [2], the Sweetening potency is recorded as 10000 times.
On to `CC[C@@H](C[C@H](O)[C@@H](C)NC(=O)[C@H](CC(=O)O)NCCC(C)(C)c1ccc(OC)c(O)c1)c1ccccc1` [compound 9, N-[3-methyl-3-(3-hydroxy-4-methoxyphenyl)butyl]-α-L-aspartyl N-(1R,2S,4S)-1-methyl-2-hydroxy-4-phenylhexyl amide], for which the Sweetening potency result in data set [1] (setting [4]) is on record as “approximately 15000 times”; in data set [1] (times the sweetness of sugar, sensory test, listed as Compound No.9), 15000 times; in data set [1] (setting [5]) it was 15000.
For `CC[C@@H](C[C@H](O)[C@@H](C)NC(=O)[C@H](CC(=O)O)NCCCc1ccc(OC)cc1O)c1ccccc1` [compound 3, N-[3-(2-hydroxy-4-methoxyphenyl)propyl]-α-L-aspartyl N-(1R,2S,4S)-1-methyl-2-hydroxy-4-phenylhexyl amide], the Sweetening potency in data set [1] (setting [4]) was found to be 6000 times; in data set [1] (setting [5]), 6000.
The like results for `CC[C@@H](C[C@H](O)[C@@H](C)NC(=O)[C@H](CC(=O)O)NCCCc1ccc(O)c(OC)c1)c1ccccc1` [compound 2, N-[3-(3-methoxy-4-hydroxyphenyl)propyl]-α-L-aspartyl N-(1R,2S,4S)-1-methyl-2-hydroxy-4-phenylhexyl amide] were, in that order, 10000 times and 10000.
One may read the half-life as the time in which the quantity being followed falls by half. Take `COC(=O)[C@H](Cc1ccccc1)NC(=O)[C@@H](N)CC(=O)O` [aspartame] (H-Asp-Phe-OMe): the half-life in data set [3] is ~30 h.
Regarding `CC[C@@H](C[C@H](O)[C@@H](C)NC(=O)[C@H](CC(=O)O)NCCCc1ccc(OC)c(O)c1)c1ccccc1` [compound 1, N-[3-(3-hydroxy-4-methoxyphenyl)propyl]-α-L-aspartyl N-(1R,2S,4S)-1-methyl-2-hydroxy-4-phenylhexyl amide], the Sweetening potency result is “approximately 15000 times” in data set [1] (setting [4]); 15000 times in data set [1] (times the sweetness of sugar, sensory test, listed as Compound No.1); 15000 in data set [1] (setting [5]).
For `CC[C@@H](C[C@H](O)[C@@H](C)NC(=O)[C@H](CC(=O)O)NCCCc1ccc(C)c(O)c1)c1ccccc1` [compound 5, N-[3-(3-hydroxy-4-methylphenyl)propyl]-α-L-aspartyl N-(1R,2S,4S)-1-methyl-2-hydroxy-4-phenylhexyl amide], the Sweetening potency turned out to be 6000 times in data set [1] (setting [4]) and 6000 in data set [1] (setting [5]).
